Results on 4 compounds are retold here after DBAASP.

Converted amounts (≈) assume the structure as drawn. “And” between values parts separate entries of the source, which are not always exact repeats. Identical values can stand only once.

Test in all cases: ≥ marks a high value that may be exact or a test limit, other limits are often not marked, values filed in µg/mL are converted to µM
For test [1], the system named is Aspergillus fumigatus.
Test [2] has as its system Fusarium culmorum.
Test [3] has as its system Fusarium oxysporum.
Test [4] has as its system Saccharomyces cerevisiae.
The subject of test [5] is Staphylococcus aureus.
Test [6] relates to Trichoderma viride.
The subject of test [7] is Trichophyton mentagrophytes.
Test [8] has as its system Acinetobacter calcoaceticus.
For test [9], the system named is Bacillus cereus.
Test [10] has as its system Bacillus pumilus.
For test [11], the system named is Candida albicans ATCC 2002.
In test [12] the test system is Escherichia coli ATCC 25922.
For test [13], the system named is Pseudomonas aeruginosa.
Test [14] relates to Shigella dysenteriae.
For test [15], the system named is Staphylococcus aureus ATCC 2592.
Test [16] relates to Bacillus licheniformis X39.
Test [17] has as its system Enterococcus faecalis 981.
Test [18] concerns Psychrobacter faecalis X29.
Test [19] has as its system Rhodococcus rhodochrous X15.
The subject of test [20] is Serratia rubidaea X01.
The test system of test [21] is Staphylococcus aureus ATCC 25923.
Test [22] has as its system Staphylococcus carnosus KHS.
For test [23], the system named is Bacillus subtilis ATCC 23857.
Test [24] relates to Bacillus subtilis CCT 2576.
Test [25] concerns Bacillus subtilis.
The subject of test [26] is Candida albicans ATCC 14053.
Test [27] deals with Candida glabrata ATCC 2001.
Test [28] deals with Candida krusei ATCC 6258.
Test [29] relates to Candida parapsilosis ATCC 22019.
The test system of test [30] is Candida tropicalis ATCC 750.
The subject of test [31] is Cronobacter sakazakii ATCC 29544.
The test system of test [32] is Escherichia coli ML-35.
Test [33] relates to Escherichia coli.
The test system of test [34] is Klebsiella pneumoniae ATCC 700603.
Test [35] deals with Klebsiella pneumoniae.
The subject of test [36] is Pseudomonas aeruginosa ATCC 15422.
Test [37] deals with Pseudomonas aeruginosa ATCC 27853.
For test [38], the system named is Salmonella typhimurium.
Test [39] has as its system Staphylococcus aureus ATCC 29213.
Test [40] deals with Staphylococcus aureus ATCC 6538.
The test system of test [41] is Staphylococcus epidermidis ATCC 12228.
For test [42], the system named is Staphylococcus epidermidis.

For `CC[C@H](C)[C@@H]1NC(=O)[C@@H]2CSSC[C@@H](C(=O)N[C@@H](CCCN=C(N)N)C(=O)N[C@@H](CCCN=C(N)N)C(=O)O)NC(=O)[C@H]([C@@H](C)O)NC(=O)[C@@H]3CSSC[C@H](NC(=O)[C@H](C)NC(=O)[C@H](C)NC(=O)[C@H](Cc4cnc[nH]4)NC(=O)CNC(=O)[C@H](C(C)C)NC(=O)CNC(=O)[C@H](Cc4ccccc4)NC(=O)[C@H](C)NC(=O)[C@H](CO)NC(=O)[C@H](CC(C)C)NC(=O)[C@H](CC(C)C)NC(=O)[C@H](CC(=O)O)NC(=O)[C@@H](NC(=O)[C@@H](NC(=O)[C@H](C)N)[C@@H](C)O)CSSC[C@H](NC(=O)[C@H](Cc4ccc(O)cc4)NC(=O)CNC(=O)CNC(=O)[C@H](CCCN=C(N)N)NC(=O)[C@H](Cc4ccc(O)cc4)NC(=O)CNC(=O)[C@H](Cc4cnc[nH]4)NC(=O)CNC1=O)C(=O)N[C@@H](CC(N)=O)C(=O)N[C@@H](CO)C(=O)N[C@@H](CCCCN)C(=O)N[C@@H](C)C(=O)N[C@@H](C(C)C)C(=O)N3)C(=O)N[C@@H](C)C(=O)N[C@@H](C)C(=O)N[C@@H](Cc1cnc[nH]1)C(=O)N2` [ATCDLLSAFGVGHAACAAHCIGHGYRGGYCNSKAVCTCRR], the minimum inhibitory concentration (MIC) (as a rule, the smallest concentration in the dilution series that meets the test's criterion for growth inhibition) in test [1] was 17.7 µM (≈ 72.4 µg/mL); in test [2], 2.21 µM (≈ 9.04 µg/mL); in test [3], 4.42 µM (≈ 18.1 µg/mL); in test [4], not below 35.4 µM; in test [5], 1.1 µM (≈ 4.52 µg/mL); in test [6], 4.42 µM (≈ 18.1 µg/mL). This compound also displayed an MIC in test [7] not below 35.4 µM.
For the compound `CC[C@H](C)[C@H](NC(=O)[C@@H]1CCCN1C(=O)[C@H](Cc1ccccc1)NC(=O)[C@@H](N)Cc1ccccc1)C(=O)N[C@H](C(=O)NCC(=O)N[C@@H](CCCCN)C(=O)N[C@@H](CC(C)C)C(=O)N[C@@H](CC(C)C)C(=O)N[C@@H](Cc1ccccc1)C(=O)NCC(=O)N[C@@H](CC(C)C)C(=O)N[C@@H](CO)C(=O)NCC(=O)N[C@@H](CC(C)C)C(=O)N[C@@H](CC(C)C)C(N)=O)C(C)C` [FFPIVGKLLFGLSGLL], the MIC in [8] was 8.72 µM (≈ 15 µg/mL); in test [9], 8.72 µM (≈ 15 µg/mL); in [10], 2.91 µM (≈ 5 µg/mL); in test [11] it was 0.726 µM (≈ 1.25 µg/mL); in test [12] it was 0.726 µM (≈ 1.25 µg/mL); in test [13], 2.91 µM (≈ 5 µg/mL). For the same compound, the MIC in test [14] was found to be 2.91 µM (≈ 5 µg/mL); in [15], 0.726 µM (≈ 1.25 µg/mL).
In the case of `CC(C)C[C@H](NC(=O)[C@H](CC(C)C)NC(=O)CNC(=O)[C@H](CCCCN)NC(=O)[C@H](CC(C)C)NC(=O)[C@H](CC(C)C)NC(=O)[C@H](CC(N)=O)NC(=O)CNC(=O)[C@@H](NC(=O)[C@H](Cc1ccccc1)NC(=O)[C@@H]1CCCN1C(=O)[C@H](CC(C)C)NC(=O)[C@@H](N)Cc1ccccc1)C(C)C)C(N)=O` [FLPFVGNLLKGLL], the MIC in test [16] is 19 µM (≈ 27.2 µg/mL); in test [17] it was 19 µM (≈ 27.2 µg/mL); in test [18], not below 75 µM; in test [19], 9 µM (≈ 12.9 µg/mL); in test [20] it was not below 75 µM; in [21], 9 µM (≈ 12.9 µg/mL). In addition, in [22], the MIC amounted to 19 µM (≈ 27.2 µg/mL).
With `CC[C@H](C)[C@H](N)C(=O)N[C@@H](CC(=O)O)C(=O)N[C@@H](Cc1c[nH]c2ccccc12)C(=O)N[C@@H](CCCCN)C(=O)N[C@@H](CCCCN)C(=O)N[C@@H](CC(C)C)C(=O)N[C@@H](CC(C)C)C(=O)N[C@@H](CC(=O)O)C(=O)N[C@@H](C)C(=O)N[C@@H](C)C(=O)N[C@@H](CCCCN)C(=O)N[C@@H](CCC(N)=O)C(=O)N[C@H](C(=O)N[C@@H](CC(C)C)C(N)=O)[C@@H](C)CC` [IDWKKLLDAAKQIL], the MIC in [23] was 8 µM and 4 µM; in [24], 2.42 µM (≈ 4 µg/mL); in [25], 7.55 µM (≈ 12.5 µg/mL); in test [26], 8 µM (≈ 13.2 µg/mL); in test [27], 8 µM (≈ 13.2 µg/mL); in test [28], 8 µM (≈ 13.2 µg/mL). The MIC in test [29] is not below 64 µM; in [30], 8 µM (≈ 13.2 µg/mL); in test [31], not below 64 µM; in test [32], not below 32 µM; in [33], 45.3 µM (≈ 75 µg/mL); in test [34] it was 64 µM (≈ 106 µg/mL). The MIC in [35] is 22.7 µM (≈ 37.5 µg/mL); in test [36], 4.83 µM (≈ 8 µg/mL); in test [37] it was 128 µM (≈ 212 µg/mL); in test [13], more than 60.4 µM; in test [38], not below 60.4 µM; in test [14], not below 45.3 µM. Moreover, the MIC in test [39] was 32 µM (≈ 52.9 µg/mL); in [40], 9.06 µM (≈ 15 µg/mL); in test [5], 11.4 µM (≈ 18.8 µg/mL); in test [41], 32 µM and > 16 µM; in [42] it was not below 60.4 µM.
